Columns and labels:
[1] = tested on: p-FAK, p-ERK, total FAK, and FoxM1; experiment: Reverse-phase protein array (RPPA) on HPNE-KRAS^G12D cells overexpressing IRAK4; assay type: cell-based, human
Description: All lysates were prepared according to sample preparation guidelines provided by MD Anderson Cancer Center (MDACC). HPNE-KRAS^G12D were infected with retroviral particles containing AU1-tagged IRAK4 WT or vector control in presence of 8 μg mL-1 polybrene, selected with blasticidin (10 μg mL-1) and RPPA was performed. For drug treatment, IRAK4 overexpressing cells were treated with AS2444697 2 μM or vehicle (DMSO) for 24 hours. For evaluation of TPL2 WT and E188K, 293T cells were transfected in duplicates with Vector (pbabe-puro), TPL2 WT or TPL2 E188K along with equal amount of polyethylenimine. Cells were harvested 48 hrs post-transfection and lysates were prepared and sent for RPPA. For both RPPA experiments, lysates were quantified by Bradford assay (Thermo Scientific), equalized for concentration, and denatured and reduced by adding 4×SDS sample buffer (without bromophenol blue) and boiling for 5 minutes.

p-MEK, p-ERK, and p-RSK = experiment: Immunoblots of MAPK pathway markers in human cell lines; assay type: cell-based
Description: (§1) Standard immunoblotting procedure was followed. Cells were washed twice with ice-cold 1×PBS and lysed with ice-cold triton-X lysis buffer (25 mM Tris, pH 7.4, 150 mM NaCl, 5 mM EDTA, 1% Triton-X) containing 1× protease (10 μg mL-1 leupeptin, 700 ng mL-1 pepstatin, 170 ng mL-1 aprotinin, 1 mM PMSF) and phosphatase (10 mM NaF, 1 mM Na3VO4, 1 mM Na4P2O^7, 5 mM Na b-glycerophosphate) inhibitors. Lysates were quantified by Bradford assay (Thermo Scientific), normalized for concentration, and reduced and denatured with 6×SDS sample buffer followed by boiling for 5 minutes. 20-40 μg of protein per sample was resolved by SDS-PAGE, blotted on PVDF membrane and probed with primary antibodies (Cell Signaling Technologies: p-ERK1/2 (#4370), p-MEK1/2 (#9154), ERK1/2 (#4695), MEK1/2 (#8727), p-p105 (#4806), NFS2KB1 p105/p50 (#3035), p-IRAK4 (#11927), IRAK4 (#4363), ubiquitin (#43124), anti-HA (#3724), p-p90RSK (#11989), RSK1/2/3 (#9355), p-TPL2 (#4491), PARP (#9532), p-B-RAF S445 (#2696), BRAF (#9433S). Santa Cruz Biotechnology: GAPDH (#sc-32233), p-p65 S536 (#sc101752). Thermo Fisher Scientific: p-55 TPL2 (#PA5-36635). EMD Millipore: IRAK4 (#07-418). R&D systems: TPL2/MAP3K8 (#MAB4586). Novus Biologicals: anti-AU1 (#NB600-453). Abcam: p-p65 S276 (#ab194726)). Membranes were incubated with appropriate HRP-conjugated secondary antibodies (anti-mouse or anti-rabbit, (1:5000 dilution), Jackson Laboratory) and imaged using chemiluminescent substrate. Additional steps for immunoprecipitation include incubation of soluble fraction lysate with anti-HA magnetic beads (Thermo Scientific cat #88837) overnight at 4° C., washing, and elution using 1×SDS sample buffer and boiling as mentioned in manufacturer's protocol.

p-TPL2 = experiment: Immunoblot of activated ectopic TPL2 (anti-p-TPL2 antibody); assay type: cell-based, human; conditions: Pa01C and HPAC cells overexpressing TPL2
Description: as §1, with “S536” left out, “S276” left out, “Membranes were incubated with appropriate HRP-conjugated secondary antibodies (anti-mouse or anti-rabbit, (1:5000 dilution), Jackson Laboratory) and imaged using chemiluminescent substrate. Additional steps for immunoprecipitation include incubation of soluble fraction lysate with anti-HA magnetic beads (Thermo Scientific cat #88837) overnight at 4° C., washing, and elution using 1×SDS sample buffer and boiling as mentioned in manufacturer's protocol.” left out

HEK T/tH-KRAS^G12V cells = experiment: Drug response and viability assay, HEK T/tH-KRAS^G12V with or without MEK1-5DD; assay type: cell-based, human; conditions: 96 hours, GI50
Description: Cells were seeded at 1500-2500 cells per well in triplicates, in 96 well format. Next day, appropriate inhibitor was added in serial dilution from 1.00×102 μM or indicated single doses. Vehicle (DMSO) was added to match volume of inhibitor used for highest concentration. After 96-120 hours, 5× AlamarBlue® reagent (resazurin sodium salt, Sigma) was added to wells and incubated for 2-4 hours. Fluorescence at 585 nm (excitation 555 nm) was measured by SpectraMax i3 Microplate Reader. Raw values were normalized to vehicle, analyzed and graphed using GraphPad Prism v7/8 software.

CC[C@@H]1[C@H](F)C(=O)N[C@@H]1COc1nccc2cc(C(N)=O)c(OC)cc12 [PF06650833, 1-(((2S,3S,4S)-3-ethyl-4-fluoro-5-oxopyrrolidin-2-yl)methoxy)-7-methoxyisoquinoline-6-carboxamide]
MAPK target proteins (RPPA) [1]: suppressed | IRAK4-induced increase in p-FAK, p-ERK, total FAK, and FoxM1 (RPPA) ([1]; 24 hours): reversed | p-MEK and p-ERK (p-MEK, p-ERK, and p-RSK; 293T cells transfected with oncogenic BRAF^V600E, 24 hours): neither TPL2i nor IRAK4i suppressed | p-MEK and p-ERK / MAPK activity (p-MEK, p-ERK, and p-RSK; BxPc-3 PDAC line (BRAF mutation, WT KRAS)): neither TPL2i nor IRAK4i suppressed | KRAS mutant-upregulated p-MEK, p-ERK, and p-RSK levels (p-MEK, p-ERK, and p-RSK; HPNE-KRAS^G12D and 293T-KRAS^G12V, 24 hours, serum-free): dose-dependently blocked | p-MEK and p-ERK levels enhanced by ectopic TPL2 (p-MEK, p-ERK, and p-RSK; Pa01C and HPAC cells overexpressing TPL2, serum-free): blocked | MAPK activity (immunoblot) (p-MEK, p-ERK, and p-RSK; Pa01C, Pa02C, Pa03C and HPAC, 16 hours): dose-dependently suppressed | activated state of ectopically expressed TPL2 (p-TPL2) (p-TPL2): dose-dependently deactivated | loss of sensitivity to growth inhibition on expression of MEK1-5DD (HEK T/tH-KRAS^G12V cells): approximately 3 fold

From patent publication US12173039B1, “TPL2 inhibiting agents, uses thereof, and detection of TPL2” (Washington University, priority 2021, dated 2024)
